Paper PMC2779710 (Journal of medicinal chemistry, 2009)
Positions of bridges follow the written chain, without caps; N, C: chain ends. Non-standard residues stand in square brackets, D forms with d. Residues, ends and D or L forms follow the SMILES beside them. Phe(4-CH2NHiPr) = CC(C)NCc1ccc(C[C@H](N)C(=O)O)cc1

Key:
SRIF receptor = settings: cited from earlier work
human sst1 receptor = human sst1 receptor (Homo sapiens, UniProt P30872); experiment: Luciferase reporter gene assay in CCL39-sst1-Luci cells; settings: for Luciferase Assay (agonist/antagonist property): CCL39-sst1-Luci cells, 0.1 nM to 1 μM, 5 h
Sequence of human sst1 receptor (P30872 whole entry): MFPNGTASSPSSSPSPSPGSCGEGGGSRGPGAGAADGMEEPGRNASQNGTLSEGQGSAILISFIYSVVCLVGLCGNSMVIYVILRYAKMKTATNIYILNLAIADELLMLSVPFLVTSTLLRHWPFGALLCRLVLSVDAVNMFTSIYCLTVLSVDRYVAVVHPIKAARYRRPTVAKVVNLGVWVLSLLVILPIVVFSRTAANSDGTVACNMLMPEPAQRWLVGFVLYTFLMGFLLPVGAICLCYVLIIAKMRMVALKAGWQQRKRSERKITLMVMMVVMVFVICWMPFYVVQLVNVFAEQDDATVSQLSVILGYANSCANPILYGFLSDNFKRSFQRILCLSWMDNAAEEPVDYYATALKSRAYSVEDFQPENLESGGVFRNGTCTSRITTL

SMILES | Luciferase Assay (agonist/antagonist property) (human sst1 receptor) | less potent than SRIF or 25 in luciferase reporter gene assay (human sst1 receptor; EC50 comparison) | binding affinity to any SRIF receptor (SRIF receptor)
CC(C)NCc1ccc(C[C@@H]2NC(=O)[C@@H](Cc3c[nH]c4ccccc34)NC(=O)[C@H](Cc3ccccc3)NC(=O)[C@H](Cc3ccccc3)NC(=O)[C@@H](N)CSSC[C@@H](C(=O)O)NC(=O)[C@H](Cc3ccccc3)NC(=O)[C@H]([C@@H](C)O)NC2=O)cc1 [Compound 9, des-AA^1,2,4,5,12,13-[DTrp^8, IAmp^9]-SRIF] (H-CFF[dW][Phe(4-CH2NHiPr)]TFC-OH; disulfide 1-8 (inferred)) | – | – | no binding affinity
CC(C)NCc1ccc(C[C@@H]2NC(=O)[C@@H](N(C)C(=O)c3ccc4ccccc4c3)NC(=O)[C@H](Cc3ccccc3)NC(=O)[C@@H](N)CSSC[C@@H](C(=O)N[C@H](C(N)=O)[C@@H](C)O)NC(=O)[C@H](Cc3ccccc3)NC2=O)cc1 [Compound 23, des-AA^1,2,4-6,10,12,13-[DAgl(NMe,2naphthoyl)^8,IAmp^9]-SRIF-Thr-NH2] | agonist | – | –
CC(C)NCc1ccc(C[C@@H]2NC(=O)[C@@H](N(C)C(=O)c3ccc4ccccc4c3)NC(=O)[C@H](Cc3ccccc3)NC(=O)[C@@H](N)CSSC[C@@H](C(N)=O)NC(=O)[C@H](Cc3ccc(O)cc3)NC2=O)cc1 [Compound 27, des-AA^1,2,4-6,10,12,13-[DAgl(NMe,2naphthoyl)^8,IAmp^9,Tyr^11]-SRIF-NH2] | agonist | – | –

Second part, led by results:

Luciferase Assay (agonist/antagonist property) (human sst1 receptor) | less potent than SRIF or 25 in luciferase reporter gene assay (human sst1 receptor; EC50 comparison) | SMILES | binding affinity to any SRIF receptor (SRIF receptor)
potent sst1 agonist | – | CC(C)NCc1ccc(C[C@@H]2NC(=O)[C@@H](N(C)C(=O)c3ccc4ccccc4c3)NC(=O)[C@H](Cc3ccccc3)NC(=O)[C@@H](NC(=O)[C@H](N)Cc3ccc(O)cc3)CSSC[C@@H](C(=O)N[C@H](C(N)=O)[C@@H](C)O)NC(=O)[C@H](Cc3ccccc3)NC2=O)cc1 [Compound 25, des-AA^1,4-6,10,12,13-[DTyr^2,DAgl(NMe,2naphthoyl)^8,IAmp^9]-SRIF-Thr-NH2] | –
agonist | – | CC(C)NCc1ccc(C[C@@H]2NC(=O)[C@@H](N(C)C(=O)c3ccc4ccccc4c3)NC(=O)[C@H](Cc3ccccc3)NC(=O)[C@H](N)CSSC[C@@H](C(=O)N[C@@H](Cc3ccc4ccccc4c3)C(N)=O)NC(=O)[C@H](Cc3ccccc3)NC2=O)cc1 [Compound 29, des-AA^1,2,4-6,10,12,13-[DCys^3,DAgl(NMe,2naphthoyl)^8,IAmp^9]-SRIF-2Nal-NH2] | –
agonist | approximately 100 fold | CC(C)NCc1ccc(C[C@@H]2NC(=O)[C@@H](Cc3c[nH]c4ccccc34)NC(=O)[C@H](Cc3ccccc3)NC(=O)[C@H](Cc3ccccc3)NC(=O)[C@H](CCCCN)NC(=O)[C@@H](NC(=O)[C@@H](N)Cc3ccc(O)cc3)CSSC[C@@H](C(=O)O)NC(=O)[C@H](CO)NC(=O)[C@H]([C@@H](C)O)NC(=O)[C@H](Cc3ccccc3)NC(=O)[C@H]([C@@H](C)O)NC2=O)cc1 [Compound 33, reference compound] (H-YCKFF[dW][Phe(4-CH2NHiPr)]TFTSC-OH; disulfide 2-12 (inferred)) | –
